# Assay results taken from US10131672B2, “Therapeutic or prophylactic agent for biliary diseases” (Toray Industries, Inc., priority 2010, dated 2018).
# Like-named read-outs stand apart in the source and are kept apart here.
# Assays:
# sphincter of Oddi [1] = test: Rabbit model for contraction of sphincter of Oddi (perfusion pressure in sphincter of Oddi); type: in vivo
# Experimental: The method described in Wei J G et al., World J. Gastroenterol., 6, 102 (2000) was partially modified and used for measurement of a change in the perfusion pressure in sphincter of Oddi. The change in the perfusion pressure reflects the motility of a contractive change of sphincter of Oddi.
# Male NZW rabbits (Japan SLC) which had body weights of 2.0 to 2.5 kg upon delivery were fasted from the evening of the day before the experiment. The experiment was carried out under anesthesia with pentobarbital, with artificial ventilation. Each rabbit was immobilized in the supine position and subjected to abdominal incision to expose the periduodenal area and the common bile duct. A small incision was made in the common bile duct, and a cannula was inserted into the common bile duct toward the duodenum side, followed by indwelling its tip in sphincter of Oddi (sphincter ampullae). For biliary excretion, another cannula was inserted into the bile duct toward the gallbladder side and immobilized. From the other end of the cannula whose tip was indwelled in the sphincter of Oddi, physiological saline was continuously injected at a flow rate of 6 mL/hour to allow perfusion in the sphincter of Oddi. By recording the perfusion pressure with a blood pressure monitoring transducer (DX-300, Nihon Kohden Corporation), the contraction reaction of sphincter of Oddi was measured.
# To the rabbit, 5% aqueous mannitol solution, which is the vehicle for the Compound 1 solution, was administered via the jugular vein. Further, not less than 30 minutes after the administration of the vehicle, Compound 1 was administered to the same individual at a dose of 0.2 μg/kg via the jugular vein. The administration volume of the vehicle and Compound 1 was 1 mL/kg, and the administration was carried out for 60 seconds.
# Thus, in the Compound 1-administered group, the rate of change in the maximum perfusion pressure was lower compared to the vehicle-administered group, and this difference was significant (*p<0.05, paired t-test).
# sphincter of Oddi [2] = test: Sphincter of Oddi perfusion pressure after intravenous administration to a dog (literature); type: in vivo
# Experimental: Further, gabexate mesilate reduces the sphincter of Oddi perfusion pressure by 6.9 mmH2O (corresponds to 0.51 mmHg) or 10.6 mmH2O (corresponds to 0.78 mmHg) when it is intravenously administered to a dog at a dose of 1 mg/kg or 3 mg/kg, respectively (Yamasato T. et al., J Smooth Muscle Res., 27, 87 (1991). Since oxapium iodide is usually orally administered at a dose of 30 to 60 mg per adult per day dividedly in 3 times, and 100 mg of gabexate mesilate is usually dissolved in 500 mL of Ringer's solution and the resulting solution is administered by intravenous drip infusion at a rate of not more than 8 mL/minute, the above-described doses are considered to be equivalent to the clinical doses of those drugs.
# sphincter of Oddi [3] = settings: dog, intravenous, cited from earlier work
# biliary tract = settings: nalbuphine not statistically significant; butorphanol statistically significant; cited from earlier work
# sphincter of Oddi [4] = settings: animal experiments, high doses; cited from earlier work
# sphincter of Oddi [5] = settings: literature reports; cited from earlier work
compound,measurement,setting,value
"CN(C(=O)/C=C/c1ccoc1)[C@@H]1CC[C@@]2(O)[C@H]3Cc4ccc(O)c5c4[C@@]2(CCN3CC2CC2)[C@H]1O5.Cl [Compound 1, (−)-17-(cyclopropylmethyl)-3,14β-dihydroxy-4,5α-epoxy-6β-[N-methyl-trans-3-(3-furyl)acrylamido]morphinan hydrochloride]",reduction of the actual value of the maximum perfusion pressure,"sphincter of Oddi [1]; 0.2 μg/kg intravenous to rabbits, on average",0.95 mmHg
same,action on contraction of sphincter of Oddi (conclusion in words),"sphincter of Oddi [1]; 0.2 μg/kg intravenous, rabbit",has an action to inhibit contraction of sphincter of Oddi
same,rate of change in the maximum perfusion pressure (Oddi muscle contraction (Delta %)),"sphincter of Oddi [1]; 0.2 μg/kg intravenous, 3 minutes after vs 3 minutes before beginning of administration, mean, N=11, vehicle 99.81%, p<0.05",93.32%
C[N+]1(CC2COC(c3ccccc3)(C3CCCCC3)O2)CCCCC1 (stereo not drawn) [Oxapium iodide],reduction of the sphincter of Oddi perfusion pressure (converted),sphincter of Oddi [2]; 0.3 mg/kg,0.74 mmHg
same,reduction of the sphincter of Oddi perfusion pressure,sphincter of Oddi [3]; 0.3 mg/kg (Tamasawa Y. et al. 1972),about 10 mmH2O
Oc1ccc2c(c1)[C@@]13CCCC[C@@]1(O)[C@@H](C2)N(CC1CCC1)CC3 [butorphanol],increase of the inner pressure of biliary tract,biliary tract,12%
CN1CC[C@]2(C)C[C@@H](Cc3ccc(O)cc32)C1 [eptazocine],contraction of sphincter of Oddi,sphincter of Oddi [4],shows an action to cause contraction of sphincter of Oddi
CCOC(=O)c1ccc(OC(=O)CCCCCNC(=N)N)cc1 [gabexate mesilate],reduction of the sphincter of Oddi perfusion pressure (converted),sphincter of Oddi [2]; 1 mg/kg,0.51 mmHg
same,reduction of the sphincter of Oddi perfusion pressure (converted),sphincter of Oddi [2]; 3 mg/kg,0.78 mmHg
same,reduction of the sphincter of Oddi perfusion pressure,sphincter of Oddi [3]; 1 mg/kg (Yamasato T. et al. 1991),6.9 mmH2O
same,reduction of the sphincter of Oddi perfusion pressure,sphincter of Oddi [3]; 3 mg/kg (Yamasato T. et al. 1991),10.6 mmH2O
Oc1ccc2c3c1O[C@H]1[C@@H](O)CC[C@@]4(O)[C@@H](C2)N(CC2CCC2)CC[C@]314 [nalbuphine],action on contraction of sphincter of Oddi,sphincter of Oddi [5],does not exert any action on contraction of sphincter of Oddi
C=CCN1CC[C@]23c4c5ccc(O)c4O[C@H]2C(=O)CC[C@@]3(O)[C@H]1C5 [naloxone],action on contraction of sphincter of Oddi,sphincter of Oddi [5],have an action to inhibit contraction of sphincter of Oddi
COc1cccc(C2(O)CCCCC2CN(C)C)c1 (stereo not drawn) [tramadol],contraction of sphincter of Oddi,sphincter of Oddi [4],causes contraction of sphincter of Oddi
methionine enkephalin,action on contraction of sphincter of Oddi,sphincter of Oddi [5],"cause transient contraction of sphincter of Oddi, followed by showing a continuous contraction inhibition action"
